Experimental data reported in US8101180B2, “Anti-IGF-IR and/or anti-insulin/IGF-I hybrid receptors antibodies and uses thereof” (Pierre Fabre Medicament, priority 2002, dated 2012).
Entries after “also recorded” stand apart in the source; their conditions may differ.

Experiments:
[1] = test system: A549 cells implanted intrapleurally; experiment: Orthotopic (intrapleural) A549 model, survival; conditions: 10^6 A549 cells intrapleural; Example 3b: 500 μg/mouse challenge then 250 μg twice per week
Experimental: In order to evaluate our antibody in a model closer to reality, the A549 cells were implanted in an intrapleural location. […] In the study which was carried out, 10^6 A549 cells were injected intrapleurally into female nude mice. 7 days after implantation, the mice were divided into 2 batches of 22.
In order to evaluate the antitumor activity of an antibody mixture directed respectively against IGF-IR and EGFR, 10^6 A549 cells (non-small cell lung cancer) were implanted in the intrapleural cavity of nude mice.
For the combined therapy, antibodies were mixed prior to the injection.
The T/C % are calculated according the following formula, [MEDIAN OF TREATED MICE/MEDIAN OF CONTROL MICE×100].

[2] = test system: BxPC3 tumor; experiment: BxPC3 pancreatic cancer xenograft; assay type: in vivo, nude mice; conditions: 250 μg/dose/mouse twice per week i.p.
Experimental: (§1) In these 4 models, the treatment was carried out twice per week i.p. at a rate of 250 μg/dose/mouse.

[3] = test system: SK-ES-1 tumor; experiment: SK-ES-1 osteosarcoma xenograft; assay type: in vivo, nude mice; conditions: 250 μg/dose/mouse twice per week i.p.
Experimental: as §1

[4] = test system: A549 cells; experiment: ADCC with human NK cells on A549 cells (51Cr); assay type: cell-based; conditions: 4 hours, 10 μg antibody per 5·10^5 cells
Experimental: In order to verify this point, NK (Natural Killer) cells coming from the peripheral blood of human donors are placed in the presence of A549 or MCF-7 cells previously incubated for 4 hours with 10 μg of 7H2HM antibody per 5·10^5 cells and labeled with ^51Cr ([…]).

Row | Substance | survival of mice orthotopically implanted with A549 cells [1] | antitumor activity in BxPC3 model [2] | antitumor activity in SKES-1 osteosarcoma model [3] | ADCC on A549 cells [4]
1 | 7C10: murine monoclonal anti-IGF-IR IgG1 secreted by the hybridoma deposited at the CNCM under the number I-2717 | significant extension of survival; also recorded: comparable and a significant gain in survival | significant activity | significant activity | –
2 | h7C10: humanized 7C10 anti-IGF-IR antibody, isotype IgG1 (humanized 1 written 7H2HM) | – | – | – | capable of inducing an ADCC
